Test results taken from publication PMC7083937, “The ribosome-associated complex RAC serves in a relay that directs nascent chains to Ssb” (Nature Communications, 2020).

How the values were obtained:
nascent Pgk1-150 = test: crosslinking to ribosome-bound nascent chain; format: binding, Saccharomyces cerevisiae; details: wild type translation extract; BS3; compared with Pgk1-50
Description: (§1) DNA templates for transcription reactions were generated by PCR using pSPUTK-Pgk1[20] as a template. Reverse primers were designed such, that PCR products encoded different length PGK1 sequences, which all lacked a stop codon. The length of the resulting translation products, which remain ribosome-bound, is indicated in Results and Figure Legends. Transcripts were generated using SP6 polymerase (Thermo Fischer Scientific) as previously described. RNCs were generated via translation reactions primed with the stop codon-less transcripts at 20 °C in the presence of [^35S]-methionine (Hartmann-Analytic) for 80 min[20],[54]. Translation reactions were stopped by the addition of 50 µg/ml cycloheximide final concentration and subsequently RNCs were isolated via centrifugation at 400.000 g for 20 min in a TLA-100 or TLA-100.2 rotor (Beckman Coulter)[20].
(§2) Chemical crosslinking of ribosome-bound nascent chains to Ssb, Zuo1, or Ssz1 was analyzed essentially as described. In brief, resuspended RNCs were incubated in the presence of 400 µM BS^3 (bis-(sulfosuccinimidyl)-suberate, spacer length 1.14 nm, Thermo Scientific) for 20 min on ice and crosslinking was then quenched by the addition of TRIS base (tris(hydroxymethyl)aminomethane) to a final concentration of 50 mM. Crosslinked protein samples were precipitated by the addition of TCA (final concentration 5%), pellets were collected by centrifugation and were dissolved in dissociation buffer (200 mM TRIS/HCl pH 7.5, 4% SDS; 10 mM EDTA, 100 µg/ml BSA, protease inhibitor mix, 1 mM PMSF). Totals shown in Figs. 1,3 and Supplementary Fig. 1 before (total) and after BS^3 crosslinking (total + BS^3) represent 5% of the dissolved material employed for immunoprecipitation reactions. The resulting denatured protein samples were used to identify crosslink products between Ssb, Zuo1, or Ssz1 and nascent chains via affinity purification under denaturing conditions. To that end, protein A sepharose beads (GE Healthcare) were pre-coated with antibodies directed against Ssb, Zuo1, or Ssz1 and subsequently the denatured crosslinked material was allowed to bind to the beads resuspended in immunoprecipitation buffer (10 mM TRIS/HCl pH 7.5, 150 mM NaCl, 5 mM EDTA, 1% Triton X-100, protease inhibitor mix, 0.5 mM PMSF)[20]. Crosslink products bound to protein A sepharose beads were released by addition of SDS-sample buffer at 95 °C for 10 min. Samples were analyzed on Tris-Tricine gels[56] followed by autoradiography. Loading was normalized according to the signal of [^35S]-labelled nascent Pgk1 in the total prior to crosslinking. Relative crosslinking efficiencies between nascent Pgk1-100 and Zuo1 or Ssz1, respectively were determined as follows. For each biological replicate, band intensities of non-crosslinked nascent Pgk1-100 and of Pgk1-100 crosslink products (XL-Zuo1 or XL-Ssz1) was determined on a single autoradiograph for wild type RAC and the different mutant variants of RAC. The crosslinking efficiency (XL-Zuo1/Pgk1-100 or XL-Ssz1/Pgk1-100) of each sample was calculated and subsequently the ratio of XL-Zuo1/Pgk1-100 or XL-Ssz1/Pgk1-100 in the presence of wild type RAC was set to 1 in order to normalize the biological replicates (see Fig. 3c,d). The original data are provided as a Source Data file.

nascent Pgk1-40 = test: crosslinking to ribosome-bound nascent chain; format: binding, Saccharomyces cerevisiae; details: wild type translation extract; BS3
Description: as §1, §2

nascent Pgk1-45 = test: crosslinking to ribosome-bound nascent chain; format: binding, Saccharomyces cerevisiae; details: wild type translation extract; BS3
Description: as §1, §2

nascent Pgk1-50 = test: crosslinking to ribosome-bound nascent chain; format: binding, Saccharomyces cerevisiae; details: wild type translation extract; BS3
Description: as §1, §2

nascent Pgk1-100 = test: crosslinking to ribosome-bound nascent chain; format: binding, Saccharomyces cerevisiae; details: BS3
Description: as §1, §2
For complementation experiments translation reactions were performed in either ∆ssb1∆ssb2 or ∆ssb1∆ssb2∆zuo1∆ssz1 translation extract as indicated. Complementation with purified Ssb1 was performed by adding His6-tagged ScSsb1 at a final concentration of 2 µM to the translation reaction prior to the addition of mRNA. Ribosome-free cytosolic extract of various mutant yeast strains for complementation experiments as indicated in Results and Figure Legends was generated as follows. The A260 of a total cell extract prepared by the glass beads method (see above) was determined, and the total cell extract was subsequently adjusted to a final concentration of 800 mM KOAc. […]

ribosomes = test: ribosome-binding assay; parameters: species or system Saccharomyces cerevisiae; details: for fraction of Ssb ribosome-bound: total cell extract
Protocol: Yeast strains were grown to early log phase on YPD, prior to harvest cycloheximide was added to a final concentration of 100 µg/ml, and subsequently cells were collected via centrifugation at 5000 g. Cell pellets were resuspended in ribosome-binding buffer (20 mM Hepes/KOH pH 7.4, 2 mM Mg(OAc)2, 120 mM KOAc, 100 µg/ml cycloheximide, 2 mM DTT, 1 mM PMSF, protease inhibitor mix) and total cell extracts were prepared by the glass beads method. After a clearing spin at 20.000 g, each 60 µl of the total glass beads extract (A260 between 80 and 100 mAU) was loaded onto a 90 µl sucrose cushion (25% sucrose, 20 mM Hepes/KOH pH 7.4, 120 mM KOAc, 2 mM Mg(OAc)2, 2 mM DTT, 1 mM PMSF, protease inhibitor mix). After centrifugation at 400.000 g at 4 °C for 25 min the cytosolic supernatant was collected and the ribosomal pellet was resuspended in 300 µl ribosome-binding buffer. Aliquots of the total cell extract, cytosolic supernatant, and resuspended ribosomal pellets were precipitated by addition of TCA (trichloroacetic acid) to a final concentration of 5%. TCA pellets were dissolved in SDS-sample buffer and were analyzed on 10% Tris-Tricine gels followed by immunoblotting.

[1] = Δssb1Δssb2 extract, purified Ssb1, 2 µM, added prior to translation

Ssb: ribosome-associated Hsp70 homolog of yeast, isoforms SSB1 and SSB2
crosslink to nascent Pgk1-150 (nascent Pgk1-150): more efficient crosslinks | crosslink to nascent Pgk1-40 (nascent Pgk1-40): did not form crosslink products with Pgk1-40 or Pgk1-45 | crosslink to nascent Pgk1-45 (nascent Pgk1-45): did not form crosslink products with Pgk1-40 or Pgk1-45 | crosslink to nascent Pgk1-50 (nascent Pgk1-50): weak crosslink | crosslinking of Ssb to nascent Pgk1 when RAC or Ssz1 is absent from ribosomes, reduced to (nascent Pgk1-100; Fig. 1e set-up): < 1/6 | crosslink to nascent Pgk1-100 (nascent Pgk1-100; wild type translation extract, compared with Pgk1-50): more efficient crosslinks | crosslink of Ssb to nascent Pgk1-100 upon adding purified Ssb (nascent Pgk1-100; [1]): restored | effect of added purified Ssb on crosslinking to the RAC subunits (nascent Pgk1-100; [1]): strongly reduced | crosslink of Ssb to nascent Pgk1-100, dependence on RAC (nascent Pgk1-100; Δzuo1Δssz1Δssb1Δssb2 RNCs complemented with ribosome-free extracts): Only in the presence of wild type RAC nascent Pgk1-100 formed an efficient crosslink to Ssb | ribosome-binding of Ssb when RAC or Ssz1 is absent from ribosomes, reduced to (ribosomes; in vitro translation system, Zuo1ΔN49, no Ssz1, or no Ssz1 and Zuo1): about 1/3 | fraction of Ssb ribosome-bound (ribosomes; cells expressing RAC-∆N49): about 1/ 3 | fraction of Ssb ribosome-bound (ribosomes; wild type, RAC-∆N8, or RAC-∆N16): About 2/3
